Experimental data published in BindingDB's records for doi:10.1021/acsmedchemlett.7b00249 (Vanderbilt University School of Medicine, 2017).

Biological target: Metabotropic glutamate receptor 5 (Rattus norvegicus, UniProt P31424)
Assay: Positive allosteric modulation of rat mGlu5 receptor expressed in HEK293A cells assessed as increase in glutamate induced-calcium mobilization preincubated for 2.3 mins followed by glutamate addition measured for 1.9 mins by Fluo-4 AM dye based fluorescence assay

Metabotropic glutamate receptor 5, sequence (P31424 whole entry): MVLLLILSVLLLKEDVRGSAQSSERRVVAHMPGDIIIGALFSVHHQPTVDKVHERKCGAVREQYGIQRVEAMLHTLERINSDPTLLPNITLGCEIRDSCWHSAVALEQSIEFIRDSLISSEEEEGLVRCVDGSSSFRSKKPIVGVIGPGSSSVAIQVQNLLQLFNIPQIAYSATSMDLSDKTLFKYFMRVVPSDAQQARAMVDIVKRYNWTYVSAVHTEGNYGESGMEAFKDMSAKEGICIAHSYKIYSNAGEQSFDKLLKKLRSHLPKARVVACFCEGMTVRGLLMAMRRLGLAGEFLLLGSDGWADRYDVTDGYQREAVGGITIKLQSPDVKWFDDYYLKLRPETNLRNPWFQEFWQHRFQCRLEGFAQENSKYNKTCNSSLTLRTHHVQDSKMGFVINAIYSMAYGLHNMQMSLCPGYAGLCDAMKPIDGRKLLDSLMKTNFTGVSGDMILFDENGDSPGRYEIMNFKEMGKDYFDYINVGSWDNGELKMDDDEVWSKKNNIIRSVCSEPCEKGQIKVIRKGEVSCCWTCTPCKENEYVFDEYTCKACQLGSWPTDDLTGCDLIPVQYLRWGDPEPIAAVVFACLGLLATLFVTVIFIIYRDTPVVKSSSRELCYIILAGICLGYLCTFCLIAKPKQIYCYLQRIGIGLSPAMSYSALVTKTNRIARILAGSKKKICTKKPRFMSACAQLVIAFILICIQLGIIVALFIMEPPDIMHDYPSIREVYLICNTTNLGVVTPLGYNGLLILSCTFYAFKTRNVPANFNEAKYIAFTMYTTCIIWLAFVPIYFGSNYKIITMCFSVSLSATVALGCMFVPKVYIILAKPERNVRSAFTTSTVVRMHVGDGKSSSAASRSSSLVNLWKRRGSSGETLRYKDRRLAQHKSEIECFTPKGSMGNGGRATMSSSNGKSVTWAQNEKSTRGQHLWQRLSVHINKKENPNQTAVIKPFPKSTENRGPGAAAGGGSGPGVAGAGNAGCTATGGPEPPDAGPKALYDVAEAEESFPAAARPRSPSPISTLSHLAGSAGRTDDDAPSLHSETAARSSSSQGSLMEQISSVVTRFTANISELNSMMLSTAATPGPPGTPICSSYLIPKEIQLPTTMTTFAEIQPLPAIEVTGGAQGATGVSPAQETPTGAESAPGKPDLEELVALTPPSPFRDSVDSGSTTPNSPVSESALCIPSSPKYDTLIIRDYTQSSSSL

For `O=c1nc(OCCOc2ccccc2)ccn1-c1ccc(F)c(F)c1`, the EC50 was 398 nM.
